# Measured values taken from patent publication US20090155387A1, “STABLE PHARMACEUTICAL COMPOSITION COMPRISING BETA-LACTAM ANTIBIOTIC AND ION-CHELATING AGENT” (priority 2006, published 2009).
# Assay: Amounts of β-lactam antibiotic, β-lactamase inhibitor and aminoglycoside antibiotic in solution over time (reverse-phase LC/HPLC)
# Type: physicochemical
# Experimental: The amounts of β-lactam antibiotics and β-lactamase inhibitor were determined using C18 reverse-phase LC and UV-VIS detector (Tianjin […] Co., Ltd., analysis method No. HM-K-03). The content of aminoglycoside antibiotics was measured using reverse-phase HPLC and evaporation-light-scattering detector (ELSD detector) (Tianjin […] Co., Ltd., analysis method No. HM-K-08). The amount of antibiotic component at each time point was expressed as a percentage with respect to the amount at the initial time. The relative amount of each antibiotic component in the composition at each time point was expressed as peak area ratio with respect to the corresponding peak area of an external standard.
smiles,measurement,setting,value
CCN1CCN(C(=O)N[C@@H](C(=O)N[C@@H]2C(=O)N3C(C(=O)O)=C(CSc4nnnn4C)CS[C@H]23)c2ccc(O)cc2)C(=O)C1=O [Cefoperazone sodium],amount (percentage of initial amount),"in Example 4 solution (no EDTA), pH 6.75, room temperature, 0 h",101.4%
same,amount (percentage of initial amount),"in Example 4 solution (no EDTA), pH 6.75, room temperature, 1 h",98.66%
same,amount (percentage of initial amount),"in Example 4 solution (no EDTA), pH 6.75, room temperature, 2 h",98.79%
same,amount (percentage of initial amount),"in Example 4 solution (no EDTA), pH 6.75, room temperature, 4 h",101.5%
same,amount (percentage of initial amount),"in Example 4 solution (no EDTA), pH 6.75, room temperature, 6 h",107.4%
same,amount (percentage of initial amount),"in Example 5 solution, pH 6.75, room temperature, 0 h",101.4%
same,amount (percentage of initial amount),"in Example 5 solution, pH 6.75, room temperature, 1 h",98.66%
same,amount (percentage of initial amount),"in Example 5 solution, pH 6.75, room temperature, 2 h",98.79%
same,amount (percentage of initial amount),"in Example 5 solution, pH 6.75, room temperature, 4 h",101.5%
same,amount (percentage of initial amount),"in Example 5 solution, pH 6.75, room temperature, 6 h",107.4%
same,amount (percentage of initial amount),"in Example 6 solution, pH 6.5, room temperature, 0 h",110.4%
same,amount (percentage of initial amount),"in Example 6 solution, pH 6.5, room temperature, 1 h",99.48%
same,amount (percentage of initial amount),"in Example 6 solution, pH 6.5, room temperature, 2 h",101.3%
same,amount (percentage of initial amount),"in Example 6 solution, pH 6.5, room temperature, 4 h",98.66%
same,amount (percentage of initial amount),"in Example 6 solution, pH 6.5, room temperature, 6 h",98.02%
same,amount (percentage of initial amount),"in Example 6 solution, pH 6.5, room temperature, 8 h",99.30%
same,amount (percentage of initial amount),"in Example 12 solution (no aminoglycoside) from freeze-dried powder stored 7 days at 0° C., redissolved, 0 h",100.2%
same,amount (percentage of initial amount),"in Example 12 solution (no aminoglycoside) from freeze-dried powder stored 7 days at 0° C., redissolved, 1 h",99.0%
same,amount (percentage of initial amount),"in Example 12 solution (no aminoglycoside) from freeze-dried powder stored 7 days at 0° C., redissolved, 2 h",99.0%
same,amount (percentage of initial amount),"in Example 12 solution (no aminoglycoside) from freeze-dried powder stored 7 days at 0° C., redissolved, 4 h",96.2%
same,amount (percentage of initial amount),"in Example 12 solution (no aminoglycoside) from freeze-dried powder stored 7 days at 0° C., redissolved, 6 h",94.5%
same,amount (percentage of initial amount),"in Example 12 solution (no aminoglycoside) from freeze-dried powder stored 7 days at 0° C., redissolved, 8 h",95.3%
same,amount (percentage of initial amount),"in Example 13 solution (Example 12 solution + etimicin sulfate), 0 h",100.2%
same,amount (percentage of initial amount),"in Example 13 solution (Example 12 solution + etimicin sulfate), 1 h",99.0%
same,amount (percentage of initial amount),"in Example 13 solution (Example 12 solution + etimicin sulfate), 2 h",99.0%
same,amount (percentage of initial amount),"in Example 13 solution (Example 12 solution + etimicin sulfate), 4 h",96.2%
same,amount (percentage of initial amount),"in Example 13 solution (Example 12 solution + etimicin sulfate), 6 h",94.5%
same,amount (percentage of initial amount),"in Example 13 solution (Example 12 solution + etimicin sulfate), 8 h",95.3%
same,amount (percentage of initial amount),"in Example 14 solution, pH 6.5, room temperature, 0 h",98.42%
same,amount (percentage of initial amount),"in Example 14 solution, pH 6.5, room temperature, 1 h",97.39%
same,amount (percentage of initial amount),"in Example 14 solution, pH 6.5, room temperature, 2 h",97.46%
same,amount (percentage of initial amount),"in Example 14 solution, pH 6.5, room temperature, 4 h",94.70%
same,amount (percentage of initial amount),"in Example 14 solution, pH 6.5, room temperature, 6 h",93.02%
same,amount (percentage of initial amount),"in Example 15 solution, pH 6.5, room temperature, 0 h",101.7%
same,amount (percentage of initial amount),"in Example 15 solution, pH 6.5, room temperature, 1 h",96.06%
same,amount (percentage of initial amount),"in Example 15 solution, pH 6.5, room temperature, 2 h",95.72%
same,amount (percentage of initial amount),"in Example 15 solution, pH 6.5, room temperature, 4 h",97.32%
same,amount (percentage of initial amount),"in Example 15 solution, pH 6.5, room temperature, 6 h",69.95%
same,amount (percentage of initial amount),"in Example 16 solution, pH 6.5, room temperature, 0 h",102.9%
same,amount (percentage of initial amount),"in Example 16 solution, pH 6.5, room temperature, 1 h",108.6%
same,amount (percentage of initial amount),"in Example 16 solution, pH 6.5, room temperature, 2 h",104.6%
same,amount (percentage of initial amount),"in Example 16 solution, pH 6.5, room temperature, 4 h",99.50%
same,amount (percentage of initial amount),"in Example 16 solution, pH 6.5, room temperature, 6 h",98.91%
same,amount (percentage of initial amount),"in Example 16 solution, pH 6.5, room temperature, 8 h",103.4%
same,amount (percentage of initial amount),"in Example 19 solution, pH 6.75, room temperature, 0 h",95.91%
same,amount (percentage of initial amount),"in Example 19 solution, pH 6.75, room temperature, 1 h",97.01%
same,amount (percentage of initial amount),"in Example 19 solution, pH 6.75, room temperature, 2 h",95.94%
same,amount (percentage of initial amount),"in Example 19 solution, pH 6.75, room temperature, 4 h",95.86%
same,amount (percentage of initial amount),"in Example 19 solution, pH 6.75, room temperature, 6 h",95.41%
same,amount (percentage of initial amount),"in Example 19 solution, pH 6.75, room temperature, 8 h",95.22%
same,amount (percentage of initial amount),"in Example 20 solution (no EDTA), pH 6.75, room temperature, 0 h",92.30%
same,amount (percentage of initial amount),"in Example 20 solution (no EDTA), pH 6.75, room temperature, 1 h",94.80%
same,amount (percentage of initial amount),"in Example 20 solution (no EDTA), pH 6.75, room temperature, 2 h",94.06%
same,amount (percentage of initial amount),"in Example 20 solution (no EDTA), pH 6.75, room temperature, 4 h",94.12%
same,amount (percentage of initial amount),"in Example 20 solution (no EDTA), pH 6.75, room temperature, 6 h",93.15%
same,amount (percentage of initial amount),"in Example 20 solution (no EDTA), pH 6.75, room temperature, 8 h",94.50%
same,amount (percentage of initial amount),"in Example 21 solution, pH 6.75, room temperature (22° C.), 0 h",92.44%
same,amount (percentage of initial amount),"in Example 21 solution, pH 6.75, room temperature (22° C.), 1 h",104.6%
same,amount (percentage of initial amount),"in Example 21 solution, pH 6.75, room temperature (22° C.), 2 h",102.4%
same,amount (percentage of initial amount),"in Example 21 solution, pH 6.75, room temperature (22° C.), 4 h",97.95%
same,amount (percentage of initial amount),"in Example 21 solution, pH 6.75, room temperature (22° C.), 6 h",98.90%
same,amount (percentage of initial amount),"in Example 21 solution, pH 6.75, room temperature (22° C.), 8 h",102.9%
CO/N=C(\C(=O)N[C@@H]1C(=O)N2C(C(=O)O)=C(CSc3nc(=O)c(=O)[nH]n3C)CS[C@H]12)c1csc(N)n1 [Ceftriaxone sodium],amount (percentage of initial amount),"in Example 7 solution, pH 6.75, room temperature, 0 h",97.01%
same,amount (percentage of initial amount),"in Example 7 solution, pH 6.75, room temperature, 1 h",100.3%
same,amount (percentage of initial amount),"in Example 7 solution, pH 6.75, room temperature, 2 h",96.40%
same,amount (percentage of initial amount),"in Example 7 solution, pH 6.75, room temperature, 4 h",99.01%
same,amount (percentage of initial amount),"in Example 7 solution, pH 6.75, room temperature, 6 h",98.91%
same,amount (percentage of initial amount),"in Example 7 solution, pH 6.75, room temperature, 8 h",99.53%
same,amount (percentage of initial amount),"in Example 8 solution from freeze-dried powder stored 7 days at 0° C., redissolved in injectable water, 0 h",98.75%
same,amount (percentage of initial amount),"in Example 8 solution from freeze-dried powder stored 7 days at 0° C., redissolved in injectable water, 1 h",100.1%
same,amount (percentage of initial amount),"in Example 8 solution from freeze-dried powder stored 7 days at 0° C., redissolved in injectable water, 2 h",99.97%
same,amount (percentage of initial amount),"in Example 8 solution from freeze-dried powder stored 7 days at 0° C., redissolved in injectable water, 4 h",98.87%
same,amount (percentage of initial amount),"in Example 8 solution from freeze-dried powder stored 7 days at 0° C., redissolved in injectable water, 6 h",99.27%
same,amount (percentage of initial amount),"in Example 8 solution from freeze-dried powder stored 7 days at 0° C., redissolved in injectable water, 8 h",100.5%
same,amount (percentage of initial amount),"in Example 9 solution from freeze-dried powder stored 7 days at 0° C., redissolved in injectable water, 0 h",92.24%
same,amount (percentage of initial amount),"in Example 9 solution from freeze-dried powder stored 7 days at 0° C., redissolved in injectable water, 1 h",96.28%
same,amount (percentage of initial amount),"in Example 9 solution from freeze-dried powder stored 7 days at 0° C., redissolved in injectable water, 2 h",94.97%
same,amount (percentage of initial amount),"in Example 9 solution from freeze-dried powder stored 7 days at 0° C., redissolved in injectable water, 4 h",94.20%
same,amount (percentage of initial amount),"in Example 9 solution from freeze-dried powder stored 7 days at 0° C., redissolved in injectable water, 6 h",97.91%
same,amount (percentage of initial amount),"in Example 9 solution from freeze-dried powder stored 7 days at 0° C., redissolved in injectable water, 8 h",93.23%
same,amount (percentage of initial amount),"in Example 24 solution, pH 6.75, room temperature, 0 h",110.2%
same,amount (percentage of initial amount),"in Example 24 solution, pH 6.75, room temperature, 1 h",117.6%
same,amount (percentage of initial amount),"in Example 24 solution, pH 6.75, room temperature, 2 h",119.4%
same,amount (percentage of initial amount),"in Example 24 solution, pH 6.75, room temperature, 4 h",111.5%
same,amount (percentage of initial amount),"in Example 24 solution, pH 6.75, room temperature, 6 h",113.4%
same,amount (percentage of initial amount),"in Example 24 solution, pH 6.75, room temperature, 8 h",120.0%
